Measurements published in patent US20230295181A1, “INHIBITOR OF APOPTOSIS (IAP) PROTEIN ANTAGONISTS” (Sanford Burnham Prebys Medical Discovery Institute, priority 2020, published 2023).
Counter-ions that a name gives are not always drawn.

Tests used:
SKOV-3 cancer cell lines = test: SKOV-3 cell viability after treatment with 10 μM test compound; format: cell-based; details: for viability at 10 µM: Homo sapiens, SK-OV-3, 10 micromolar test compound, SKOV-3 cells
Description: SKOV-3 cancer cell lines were treated with a test compound, either as a pure enantiomer or a mixture of stereoisomers, at a concentration of 10 μM. Cell viability was evaluated following treatment with a compound as disclosed in Table B. Viability of cancer cells following treatment is indicated according to the following legend:
A=0-25% viability B=26-50% viability C=>50% viability

SKOV-3 = test: Cell viability (CellTiterGlo), SKOV-3; format: cell-based; details: Homo sapiens, SK-OV-3
Description: (§1) Candidate compounds are tested in 384-well plates for effects on cell viability in the presence or absence of an appropriate conventional anticancer drug. Cell viability is indirectly monitored in the first instance using CellTiterGlo (Promega Corp., Madison, WI) (Table D). To determine if cell death is apoptotic, the induction of caspase activity is assessed utilizing the CaspaseGlo Assay system (Promega Corp., Madison, WI) (Table E). Cell viability is monitored 1 to 3 days after addition of compounds and conventional drugs. […] A compound of any of the formulae as disclosed herein is evaluated in combination with said anticancer drug to determine which ML-IAP antagonist can sensitize most efficaciously. Select candidate compounds are tested in 14 point drug dose response (DDR) curves in a 384-well format in order to establish potency in combination with decreasing concentrations of lung cancer relevant drug regimens. Furthermore, checker-board titrations of a conventional drug and the candidate molecules are performed to search for synergy (using ISOBOLOGRAM analysis). Compounds and combinations as described herein are also tested for cytotoxicity against normal human cells (e.g. primary fibroblasts, lymphocytes, hepatocytes, epithelial and endothelial cells) using known methods.
(§2) Cell viability was evaluated following treatment with a compound as disclosed in Table D. Viability of cancer cells following treatment is indicated according to the following legend: […]

OVCAR-4 = test: Cell viability (CellTiterGlo), OVCAR-4; format: cell-based; details: Homo sapiens
Description: as §1, §2

Caspase 3/7 (SKOV-3) = test: Induction of caspase 3/7 activity (CaspaseGlo), SKOV-3; format: cell-based; details: Homo sapiens, SK-OV-3
Description: as §1
(§3) The induction of caspase activities was tested with a compound as disclosed in Table E. The activities are indicated according to the following legend: […]

Caspase 3/7 (OVCAR-4) = test: Induction of caspase 3/7 activity (CaspaseGlo), OVCAR-4; format: cell-based; details: Homo sapiens
Description: as §1, §3

Caspase 9 (SKOV-3) = test: Induction of caspase 9 activity (CaspaseGlo), SKOV-3; format: cell-based; details: Homo sapiens, SK-OV-3
Description: as §1, §3

[1] = In vivo PK plasma exposure in mice
Description: Pharmacokinetic (PK) studies are performed in vivo in mice for compounds as described herein. Standard formulations are evaluated, including hydroxypropyl methylcellulose, carboxymethylcellulose, and polyethylene glycol. For intravenous studies, compounds are administered via indwelling catheters in jugular vein and samples collected from the carotid artery. These experiments provide basic pharmacokinetic parameters including peak plasma concentration (Cmax), bioavailability (% F), exposure (AUC), half-life (t½), clearance (CL), volume of distribution (Vd), and brain levels. To measure bioavailability, a compound as described herein is administered to three animals/group, both orally (10 mg/kg) and intravenously (1 mg/kg). Intraperitoneally administration is also assessed in order to determine both brain and plasma levels of compounds.
The compounds described herein were tested in vivo in mice to measure PK plasma exposure as shown in Table F. The PK plasma values are indicated according to the following legend: […]

XIAP-BIR3 = XIAP-BIR3 (Homo sapiens (Human), UniProt P98170); test: Fluorescence polarization (FP) assay, inhibition of SMAC peptide binding
Description: Compounds of the present disclosure were evaluated for potency and selectivity in a fluorescence polarization (FP) assay that measures inhibition of SMAC peptide binding to ML-IAP. To measure SMAC peptide binding, multi-well plate format FP assays based on the ability of SMAC peptides to bind the BIR domains of several IAPs are used to generate IC50 and Ki values for analogues. The FP assays utilize plasmid constructs encoding various full length IAPs or fragments for expression as either GST or His6-fusion proteins in bacteria. Compounds are evaluated for activity against several members of the IAP family, including the BIR domains of XIAP, cIAP1 and cIAP2 in order to generate selectivity profiles of the compounds disclosed herein. These assays also enable the identification and characterization of potency profiles of ML-IAP binding.
Activity of the compounds are indicated according to the following legend: […]

H460 lung cancer cells = test: Sensitization of lung cancer cells to standard of care treatment (vinorelbine); format: cell-based; details: combination with vinorelbine, FIG. 1
Description: In order to assess the role of ML-IAP antagonists in cancer treatment, H460 lung cancer cells are treated with a standard of care treatment (e.g., vinorelbine) alone or in combination with a selective ML-IAP antagonist. […] The leftward shift in the dose dependent response (DDR) curve indicates a resensitization of lung cancer cells to the anti-cancer agent. Furthermore, TNF induction is absent following treatment with a compound described herein in breast cancer MDA-MB-231 cells. This effect provides a substantial advantage clinically as it avoids an inappropriate inflammatory response.

Chain of XIAP-BIR3 (P98170 241-356): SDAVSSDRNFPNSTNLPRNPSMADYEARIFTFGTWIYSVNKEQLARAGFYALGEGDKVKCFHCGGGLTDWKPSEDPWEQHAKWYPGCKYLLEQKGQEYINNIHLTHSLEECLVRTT

SMILES | viability at 10 µM (SKOV-3 cancer cell lines) [%] | IC50 (SKOV-3) [µM] | IC50 (OVCAR-4) [µM] | EC50 (Caspase 3/7 (SKOV-3)) [nM] | EC50 (Caspase 3/7 (OVCAR-4)) [nM] | EC50 (Caspase 9 (SKOV-3)) [nM] | PK plasma exposure at 1 h (IP, 10 mg/kg) [1] | Ki (XIAP-BIR3) [µM] | % viability after treatment with 10 micromolar of test compound (SKOV-3 cells) (SKOV-3 cancer cell lines; 10 micromolar test compound, hydrochloride) | sensitizing effect on lung cancer cells (H460 lung cancer cells)
CC[C@H](NC)C(=O)N[C@H]1CCS[C@H]2CC(C)(C)[C@@H](C(=O)N[C@@H]3CCCc4ccccc43)N2C1=O.Cl [Compound 79, (4S,7S,9aS)-8,8-dimethyl-4-((S)-2-(methylamino)butanamido)-5-oxo-N—((R)-1,2,3,4-tetrahydronaphthalen-1-yl)octahydropyrrolo[2,1-b][1,3]thiazepine-7-carboxamide hydrochloride] | 0 to 25 | 0.001 to 0.01 | 0.01 to 0.1 | 1 to 10 | 1 to 10 | 1 to 10 | iii (iii=500-1000 nM) | – | – | –
CN[C@@H](C)C(=O)N[C@H]1CCS[C@H]2CC3(CCCC3)[C@@H](C(=O)N[C@@H]3CCCc4ccccc43)N2C1=O [Compound 80, (4'S,7'S,9a'S)-4′-((S)-2-(methylamino)propanamido)-5′-oxo-N—((R)-1,2,3,4-tetrahydronaphthalen-1-yl)hexahydro-7′H-spiro[cyclopentane-1,8′-pyrrolo[2,1-b][1,3]thiazepine]-7′-carboxamide hydrochloride] | 0 to 25 | < 0.001 | 0.001 to 0.01 | < 1 | < 1 | < 1 | iii (iii=500-1000 nM) | 0.01 to 0.1 | – | –
CN[C@@H](C)C(=O)N[C@H]1CCOC2CC3(CCCC3)C(C(=O)N[C@@H]3CCCc4ccccc43)N2C1=O (stereo partly drawn) [Compound 82, (4'S)-4′-((S)-2-(methylamino)propanamido)-5′-oxo-N—((R)-1,2,3,4-tetrahydronaphthalen-1-yl)hexahydro-7′H-spiro[cyclopentane-1,8′-pyrrolo[2,1-b][1,3]oxazepine]-7′-carboxamide hydrochloride] | 0 to 25 | 0.001 to 0.01 | 0.001 to 0.01 | 1 to 10 | 1 to 10 | 1 to 10 | iv (iv=>1000 nM) | 0.01 to 0.1 | – | –
CCC1(CC)C[C@@H]2SCC[C@H](NC(=O)[C@H](C)NC)C(=O)N2C1C(=O)N[C@@H]1CCCc2ccccc21 (mixture of isomers) [Compound 38, (4S,9aS)-8,8-diethyl-4-((S)-2-(methylamino)propanamido)-5-oxo-N—((R)-1,2,3,4-tetrahydronaphthalen-1-yl)octahydropyrrolo[2,1-b][1,3]thiazepine-7-carboxamide hydrochloride] | – | 0.01 to 0.1 | 0.01 to 0.1 | 1 to 10 | 1 to 10 | 1 to 10 | iii (iii=500-1000 nM) | > 0.1 | A (A=0-25% viability) | –
CN[C@@H](C)C(=O)N[C@H]1CCS[C@H]2CC(C)(C)C(C(=O)N[C@@H]3CCCc4ccccc43)N2C1=O (stereo partly drawn) [Compound A, (4S,9aS)-8,8-dimethyl-4-((S)-2-(methylamino)propanamido)-5-oxo-N—((R)-1,2,3,4-tetrahydronaphthalen-1-yl)octahydropyrrolo[2,1-b][1,3]thiazepine-7-carboxamide hydrochloride] | – | 0.001 to 0.01 | 0.001 to 0.01 | 1 to 10 | 1 to 10 | < 1 | iii (iii=500-1000 nM) | 0.01 to 0.1 | – | sensitizing effect
CN[C@@H](C)C(=O)N[C@H]1CCOC2CC(C)(C)[C@@H](C(=O)Nc3ccccc3-c3ncccn3)N2C1=O (stereo partly drawn) [Compound 55, (4S,7S)-8,8-dimethyl-4-((S)-2-(methylamino)propanamido)-5-oxo-N-(2-(pyrimidin-2-yl)phenyl)octahydropyrrolo[2,1-b][1,3]oxazepine-7-carboxamide hydrochloride] | > 50 | > 1 | > 1 | – | – | – | – | – | – | –
CN[C@@H](C)C(=O)N[C@H]1CCOC2CC3(CC=CC3)C(C(=O)N[C@@H]3CCCc4ccccc43)N2C1=O (stereo partly drawn) [Compound 81, (4'S)-4′-((S)-2-(methylamino)propanamido)-5′-oxo-N—((R)-1,2,3,4-tetrahydronaphthalen-1-yl)-2′,3′,4′,5′,9′,9a′-hexahydro-7′H-spiro[cyclopentane-1,8′-pyrrolo[2,1-b][1,3]oxazepin]-3-ene-7′-carboxamide hydrochloride] | 0 to 25 | 0.001 to 0.01 | 0.01 to 0.1 | 1 to 10 | 1 to 10 | 1 to 10 | iii (iii=500-1000 nM) | 0.01 to 0.1 | – | –
CCC1(CC)C[C@@H]2OCC[C@H](NC(=O)[C@H](C)NC)C(=O)N2[C@@H]1C(=O)N[C@@H]1CCCc2ccccc21 [Compound 21, (4S)-8,8-diethyl-4-((S)-2-(methylamino)propanamido)-5-oxo-N—((R)-1,2,3,4-tetrahydronaphthalen-1-yl)octahydropyrrolo[2,1-b][1,3]oxazepine-7-carboxamide hydrochloride] | 0 to 25 | 0.01 to 0.1 | 0.1 to 1 | – | – | – | – | – | – | –
CN[C@@H](C)C(=O)N[C@@H]1C(=O)N2[C@H](CC(C)(C)[C@H]2C(=O)N[C@@H]2CCCc3ccccc32)OC2CCCCC21 (single isomer, unassigned) [Compound 65, hydrochloride] | 0 to 25 | 0.01 to 0.1 | 0.01 to 0.1 | 1 to 10 | 1 to 10 | 1 to 10 | iii (iii=500-1000 nM) | 0.01 to 0.1 | – | –
C=CCC1(CC=C)C[C@@H]2OCC[C@H](NC(=O)[C@H](C)NC)C(=O)N2[C@@H]1C(=O)N[C@@H]1CCCc2ccccc21 [Compound 14, (4S,9aS)-8,8-diallyl-4-((S)-2-(methylamino)propanamido)-5-oxo-N—((R)-1,2,3,4-tetrahydronaphthalen-1-yl)octahydropyrrolo[2,1-b][1,3]oxazepine-7-carboxamide hydrochloride] | 0 to 25 | 0.1 to 1 | 0.1 to 1 | – | – | – | – | – | – | –
CN[C@@H](C)C(=O)N[C@H]1CCS[C@H]2CC(CCc3ccccc3)(CCc3ccccc3)[C@@H](C(=O)N[C@@H]3CCCc4ccccc43)N2C1=O [Compound 45, (4S,9aS)-4-((S)-2-(methylamino)propanamido)-5-oxo-8,8-diphenethyl-N—((R)-1,2,3,4-tetrahydronaphthalen-1-yl)octahydropyrrolo[2,1-b][1,3]thiazepine-7-carboxamide hydrochloride] | 0 to 25 | 0.1 to 1 | > 1 | – | – | – | – | – | – | –
